In ChEMBL document CHEMBL1909046, “DrugMatrix in vitro pharmacology data” one finds IC50 and Ki data, which are given here for six compounds.

Assay [1] concerns the target T1, Alpha-2C adrenergic receptor (Homo sapiens, UniProt P18825).
T1 sequence (P18825 whole entry): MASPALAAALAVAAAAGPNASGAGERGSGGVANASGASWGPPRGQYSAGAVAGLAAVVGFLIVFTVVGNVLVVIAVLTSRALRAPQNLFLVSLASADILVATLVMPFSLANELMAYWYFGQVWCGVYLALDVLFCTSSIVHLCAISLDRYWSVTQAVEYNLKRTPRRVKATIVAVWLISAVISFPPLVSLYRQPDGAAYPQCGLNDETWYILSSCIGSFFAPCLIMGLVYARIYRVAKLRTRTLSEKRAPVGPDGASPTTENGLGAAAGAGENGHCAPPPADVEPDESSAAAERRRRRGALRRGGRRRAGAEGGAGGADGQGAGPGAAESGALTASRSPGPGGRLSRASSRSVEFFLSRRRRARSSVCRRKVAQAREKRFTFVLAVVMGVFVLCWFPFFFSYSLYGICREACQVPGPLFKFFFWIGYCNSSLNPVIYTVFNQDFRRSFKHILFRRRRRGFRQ
Nature of the assay: DRUGMATRIX: Adrenergic Alpha-2C radioligand binding (ligand: [3H] MK-912). It counts as cell membranes, Sf9, Membrane. The conditions noted are these: sf9.

The nature of assay [2]: DRUGMATRIX: Atrial Natriuretic Factor (ANF) radioligand binding (ligand: [125I] ANF (rat)). The conditions noted are these: Not Active = under 50% inhibition at 10 µM. It counts as cell membranes, Cavia porcellus, Dunkin-Hartley, Adrenal gland, Membrane.
A short description of assay [3]: DRUGMATRIX: Sigma2 radioligand binding (ligand: [3H] Ifenprodil). It counts as cell membranes, Rattus norvegicus, Wistar, Brain, Membrane. As to conditions: Not Active = under 50% inhibition at 10 µM.
A further assay has as its target T2, Thromboxane-A synthase (Homo sapiens, UniProt P24557).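 Also: enzyme inhibition assay with PGH2 supplied as substrate; in other assays of this panel Not Active means under 50% inhibition at 10 µM.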
T2 sequence (P24557 whole entry): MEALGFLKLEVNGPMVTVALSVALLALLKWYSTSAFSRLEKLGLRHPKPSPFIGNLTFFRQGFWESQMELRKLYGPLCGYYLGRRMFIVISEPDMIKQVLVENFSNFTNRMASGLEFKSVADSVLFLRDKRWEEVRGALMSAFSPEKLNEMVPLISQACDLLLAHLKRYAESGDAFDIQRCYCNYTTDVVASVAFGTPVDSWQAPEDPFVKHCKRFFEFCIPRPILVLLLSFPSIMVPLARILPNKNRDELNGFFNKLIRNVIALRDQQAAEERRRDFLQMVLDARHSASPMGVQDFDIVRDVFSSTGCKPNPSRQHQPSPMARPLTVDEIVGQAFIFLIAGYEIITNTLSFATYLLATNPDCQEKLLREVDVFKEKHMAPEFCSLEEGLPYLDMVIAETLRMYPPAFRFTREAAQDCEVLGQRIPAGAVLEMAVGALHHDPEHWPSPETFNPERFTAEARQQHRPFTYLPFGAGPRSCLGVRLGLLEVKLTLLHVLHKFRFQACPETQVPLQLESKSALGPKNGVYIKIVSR
Description: biochemical. It counts as tissue-based, Platelet.

The target in assay [4] is Vascular endothelial growth factor receptor 1 (Homo sapiens, UniProt P17948). It counts as cell-based. The conditions noted are these: huvec. Also: in other assays of this panel Not Active means under 50% inhibition at 10 µM.
The target in a further assay is Carbonic anhydrase 2 (Homo sapiens, UniProt P00918). Description: DRUGMATRIX: Carbonic Anhydrase II enzyme inhibition (substrate: 4-Nitrophenyl acetate (4-NPA)). As to conditions: erythrocyte; Not Active = under 50% inhibition at 10 µM. It counts as tissue-based, Erythrocyte.
The target of assay [5] is C-C chemokine receptor type 5 (Homo sapiens, UniProt P51681). It counts as cell membranes, Membrane. As to conditions: hek293. Also: in other assays of this panel Not Active means under 50% inhibition at 10 µM.
The target in the next assay is T3, D(4) dopamine receptor (Homo sapiens, UniProt P21917).
T3 sequence (P21917 whole entry): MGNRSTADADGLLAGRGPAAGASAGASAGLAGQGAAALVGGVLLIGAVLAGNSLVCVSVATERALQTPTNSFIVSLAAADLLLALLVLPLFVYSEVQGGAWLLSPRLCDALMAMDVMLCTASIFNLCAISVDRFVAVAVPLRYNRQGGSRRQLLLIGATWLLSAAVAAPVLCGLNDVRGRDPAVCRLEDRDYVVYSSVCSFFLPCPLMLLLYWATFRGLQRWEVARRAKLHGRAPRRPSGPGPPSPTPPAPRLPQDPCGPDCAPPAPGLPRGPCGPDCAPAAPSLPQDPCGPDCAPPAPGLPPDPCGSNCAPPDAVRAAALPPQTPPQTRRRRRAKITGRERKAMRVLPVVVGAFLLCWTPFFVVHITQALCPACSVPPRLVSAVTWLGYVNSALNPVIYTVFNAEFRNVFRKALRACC
Nature of the assay: DRUGMATRIX: Dopamine D4.2 radioligand binding (ligand: [3H] Spiperone). As to conditions: cho-k1; Not Active = under 50% inhibition at 10 µM. It counts as cell membranes, CHO-K1, Membrane.

Assay [6] deals with Sodium-dependent dopamine transporter (Homo sapiens, UniProt Q01959). Description: DRUGMATRIX: Dopamine Transporter radioligand binding (ligand: [125I] RTI-55). It counts as cell membranes, CHO-K1, Membrane. As to conditions: cho-k1; Not Active = under 50% inhibition at 10 µM.
A further assay deals with Glycine receptor (Rattus norvegicus, UniProt P22771+P24524+P07727+P20781). It counts as cell membranes, Wistar, Spinal cord, Membrane.
Assay [7] in a line: DRUGMATRIX: Imidazoline I2, Central radioligand binding (ligand: [3H] Idazoxan). It counts as cell membranes, Rattus norvegicus, Wistar, Cerebral cortex, Membrane. As to conditions: Not Active = under 50% inhibition at 10 µM.
Assay [8] in a line: DRUGMATRIX: Leukotriene, BLT (LTB4) radioligand binding (ligand: [3H]LTB4). It counts as cell membranes, Membrane. As to conditions: u-937; Not Active = under 50% inhibition at 10 µM.
A further assay deals with Nitric oxide synthase 1 (Rattus norvegicus, UniProt P29476). It counts as tissue-based, Cerebellum.
Another assay addresses T4, Caspase-1 (Homo sapiens, UniProt P29466).
T4 sequence (P29466 whole entry): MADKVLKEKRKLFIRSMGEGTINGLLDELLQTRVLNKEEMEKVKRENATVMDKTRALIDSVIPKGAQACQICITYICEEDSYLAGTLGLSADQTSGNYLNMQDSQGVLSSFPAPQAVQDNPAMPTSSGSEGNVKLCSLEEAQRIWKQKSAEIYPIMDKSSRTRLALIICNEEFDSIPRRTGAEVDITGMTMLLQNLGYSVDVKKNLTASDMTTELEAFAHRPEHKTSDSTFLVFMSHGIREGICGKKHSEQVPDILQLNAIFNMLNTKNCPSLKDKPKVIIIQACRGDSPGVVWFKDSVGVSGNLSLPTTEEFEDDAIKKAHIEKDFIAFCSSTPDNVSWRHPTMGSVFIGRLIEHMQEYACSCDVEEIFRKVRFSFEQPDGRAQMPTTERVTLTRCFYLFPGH
Further details: species or system Escherichia coli.

Sequence of Vascular endothelial growth factor receptor 1 (P17948 whole entry): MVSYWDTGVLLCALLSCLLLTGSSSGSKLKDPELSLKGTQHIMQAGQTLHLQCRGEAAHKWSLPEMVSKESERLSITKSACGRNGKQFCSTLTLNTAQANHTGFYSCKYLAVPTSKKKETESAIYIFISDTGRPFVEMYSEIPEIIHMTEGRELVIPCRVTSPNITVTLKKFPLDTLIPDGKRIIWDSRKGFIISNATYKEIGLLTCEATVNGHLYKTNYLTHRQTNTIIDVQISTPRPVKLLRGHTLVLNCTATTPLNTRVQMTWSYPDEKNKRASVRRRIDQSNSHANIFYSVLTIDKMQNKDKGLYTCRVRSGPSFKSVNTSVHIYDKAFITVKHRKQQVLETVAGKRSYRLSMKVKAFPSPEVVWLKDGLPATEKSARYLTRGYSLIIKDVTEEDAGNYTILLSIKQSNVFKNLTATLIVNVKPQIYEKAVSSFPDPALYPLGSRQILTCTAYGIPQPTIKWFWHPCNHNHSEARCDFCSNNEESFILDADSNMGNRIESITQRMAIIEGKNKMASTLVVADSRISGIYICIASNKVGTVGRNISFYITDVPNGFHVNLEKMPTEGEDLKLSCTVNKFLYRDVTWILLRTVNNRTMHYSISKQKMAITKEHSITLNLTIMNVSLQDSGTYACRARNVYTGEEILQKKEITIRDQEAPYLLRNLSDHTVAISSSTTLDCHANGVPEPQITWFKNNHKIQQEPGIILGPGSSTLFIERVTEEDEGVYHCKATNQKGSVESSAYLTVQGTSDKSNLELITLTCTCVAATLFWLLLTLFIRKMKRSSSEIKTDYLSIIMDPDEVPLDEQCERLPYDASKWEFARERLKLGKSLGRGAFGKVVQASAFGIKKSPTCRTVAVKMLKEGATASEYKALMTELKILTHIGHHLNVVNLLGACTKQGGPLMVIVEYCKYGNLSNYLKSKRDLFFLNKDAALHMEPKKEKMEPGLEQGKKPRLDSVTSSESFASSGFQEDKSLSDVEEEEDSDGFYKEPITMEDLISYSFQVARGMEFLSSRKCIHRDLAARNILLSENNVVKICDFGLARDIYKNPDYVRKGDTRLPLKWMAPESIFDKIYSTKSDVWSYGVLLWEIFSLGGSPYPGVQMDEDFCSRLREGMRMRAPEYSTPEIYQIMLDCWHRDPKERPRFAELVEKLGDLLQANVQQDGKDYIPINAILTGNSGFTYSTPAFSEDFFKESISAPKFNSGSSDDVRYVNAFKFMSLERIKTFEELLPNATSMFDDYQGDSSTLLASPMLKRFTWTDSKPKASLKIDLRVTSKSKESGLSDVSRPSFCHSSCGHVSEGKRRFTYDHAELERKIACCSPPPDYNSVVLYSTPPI
Sequence of Nitric oxide synthase 1 (P29476 whole entry): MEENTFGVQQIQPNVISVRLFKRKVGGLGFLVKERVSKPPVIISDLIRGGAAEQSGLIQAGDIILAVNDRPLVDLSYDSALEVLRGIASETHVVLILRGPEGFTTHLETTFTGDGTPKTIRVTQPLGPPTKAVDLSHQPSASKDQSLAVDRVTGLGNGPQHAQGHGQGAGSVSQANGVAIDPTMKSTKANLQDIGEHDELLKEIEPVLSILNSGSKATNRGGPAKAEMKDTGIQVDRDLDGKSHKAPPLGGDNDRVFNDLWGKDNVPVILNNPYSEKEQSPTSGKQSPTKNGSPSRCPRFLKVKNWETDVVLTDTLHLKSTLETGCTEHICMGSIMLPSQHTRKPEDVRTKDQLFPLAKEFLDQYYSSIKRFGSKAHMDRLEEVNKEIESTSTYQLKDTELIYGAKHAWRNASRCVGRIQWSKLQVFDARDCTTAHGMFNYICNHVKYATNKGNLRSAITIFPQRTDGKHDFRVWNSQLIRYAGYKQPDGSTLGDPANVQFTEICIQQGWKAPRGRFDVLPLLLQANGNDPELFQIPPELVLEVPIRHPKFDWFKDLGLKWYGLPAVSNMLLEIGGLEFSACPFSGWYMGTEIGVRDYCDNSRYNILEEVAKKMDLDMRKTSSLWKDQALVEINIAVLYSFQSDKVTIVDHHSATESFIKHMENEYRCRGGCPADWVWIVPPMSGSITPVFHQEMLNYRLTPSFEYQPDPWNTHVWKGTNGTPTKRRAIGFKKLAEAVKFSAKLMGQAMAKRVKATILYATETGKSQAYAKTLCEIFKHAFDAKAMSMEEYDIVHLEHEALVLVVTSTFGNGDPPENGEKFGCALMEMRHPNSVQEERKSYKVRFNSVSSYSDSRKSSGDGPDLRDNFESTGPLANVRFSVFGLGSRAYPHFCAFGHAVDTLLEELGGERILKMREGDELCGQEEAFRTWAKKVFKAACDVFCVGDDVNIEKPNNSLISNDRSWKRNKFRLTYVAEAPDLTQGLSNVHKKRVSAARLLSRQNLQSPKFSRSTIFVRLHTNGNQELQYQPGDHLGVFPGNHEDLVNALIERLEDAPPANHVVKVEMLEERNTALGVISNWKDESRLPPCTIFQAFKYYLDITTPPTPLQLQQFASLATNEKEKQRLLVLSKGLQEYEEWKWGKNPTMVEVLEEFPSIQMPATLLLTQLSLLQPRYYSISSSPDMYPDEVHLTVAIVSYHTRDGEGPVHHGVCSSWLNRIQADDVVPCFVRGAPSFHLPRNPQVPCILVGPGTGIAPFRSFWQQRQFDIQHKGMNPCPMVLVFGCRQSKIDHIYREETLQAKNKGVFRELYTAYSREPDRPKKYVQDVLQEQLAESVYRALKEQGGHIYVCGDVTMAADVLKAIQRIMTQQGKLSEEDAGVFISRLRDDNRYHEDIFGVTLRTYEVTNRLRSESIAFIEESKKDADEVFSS
Sequence of C-C chemokine receptor type 5 (P51681 whole entry): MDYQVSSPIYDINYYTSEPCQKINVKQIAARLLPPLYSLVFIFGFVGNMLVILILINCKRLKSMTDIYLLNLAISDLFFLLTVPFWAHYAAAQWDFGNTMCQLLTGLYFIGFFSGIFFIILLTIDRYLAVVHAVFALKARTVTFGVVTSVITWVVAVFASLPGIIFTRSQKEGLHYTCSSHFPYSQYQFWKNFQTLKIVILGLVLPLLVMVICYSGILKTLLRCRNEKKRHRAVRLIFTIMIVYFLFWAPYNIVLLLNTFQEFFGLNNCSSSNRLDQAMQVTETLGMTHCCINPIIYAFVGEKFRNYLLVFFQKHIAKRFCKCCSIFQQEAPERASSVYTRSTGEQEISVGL
Sequence of Sodium-dependent dopamine transporter (Q01959 whole entry): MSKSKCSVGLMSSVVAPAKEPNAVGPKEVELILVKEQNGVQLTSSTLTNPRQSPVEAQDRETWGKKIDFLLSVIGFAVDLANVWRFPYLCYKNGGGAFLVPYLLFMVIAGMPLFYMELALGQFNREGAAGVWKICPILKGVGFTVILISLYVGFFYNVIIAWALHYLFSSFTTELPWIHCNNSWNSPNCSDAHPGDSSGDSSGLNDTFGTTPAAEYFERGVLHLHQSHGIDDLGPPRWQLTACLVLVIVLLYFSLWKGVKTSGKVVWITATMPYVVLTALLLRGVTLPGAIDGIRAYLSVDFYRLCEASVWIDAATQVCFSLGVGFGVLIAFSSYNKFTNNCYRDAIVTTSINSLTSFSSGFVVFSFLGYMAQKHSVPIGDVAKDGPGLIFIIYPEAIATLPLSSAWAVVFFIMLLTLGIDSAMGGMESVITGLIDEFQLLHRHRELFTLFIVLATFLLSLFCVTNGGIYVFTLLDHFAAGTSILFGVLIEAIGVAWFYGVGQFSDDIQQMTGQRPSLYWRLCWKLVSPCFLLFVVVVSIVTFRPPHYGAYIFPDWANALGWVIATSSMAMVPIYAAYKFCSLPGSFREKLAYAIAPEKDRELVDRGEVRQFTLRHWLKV

A word on the IC50: it is the concentration that inhibits the measured activity by half. For the compound `CCOC(=O)[C@H](CCc1ccccc1)N[C@@H](C)C(=O)N1[C@H](C(=O)O)C[C@@H]2CCC[C@@H]21`, the IC50 result (in assay [1]; in assay [2]; in assay [3]; against Thromboxane-A synthase (platelet); in [4]; at Carbonic anhydrase 2) was “Not Active” each time. The IC50 entry (in assay [5]; at D(4) dopamine receptor; in assay [6]; against Glycine receptor; in assay [7]; in assay [8]) was “Not Active” in each case. Further, the IC50 result against Nitric oxide synthase 1 and against Caspase-1 was “Not Active” each time. The Ki result in assay [2], in assay [3], in assay [7] and in assay [8] was “Not Active” each time.
Turning to `CC(C)(C)NC(=O)[C@@H]1CN(Cc2cccnc2)CCN1C[C@@H](O)C[C@@H](Cc1ccccc1)C(=O)N[C@H]1c2ccccc2C[C@H]1O.O`, the IC50 result was “Not Active” in assay [1]; “Not Active” in assay [2]; “Not Active” in [3]; 1850 nM on Thromboxane-A synthase (read-out: IC50); “Not Active” in assay [4]; “Not Active” against Carbonic anhydrase 2. The IC50 result (in assay [5]; at D(4) dopamine receptor; in [6]; at Glycine receptor; in assay [7]; in assay [8]) was “Not Active” throughout. Also, the IC50 result against Nitric oxide synthase 1 and at Caspase-1 was “Not Active” each time. In addition, the Ki entry in assay [2], in assay [3], in [7] and in [8] was “Not Active” in each case.
Turning to `CC1(C)[C@H]2CC[C@]1(C)C(=O)C2` [(-)-CAMPHOR], the IC50 entry (in assay [1]; in assay [2]; in [3]; against Thromboxane-A synthase (platelet); in assay [4]; on Carbonic anhydrase 2) was “Not Active” each time. The IC50 result (in assay [5]; on D(4) dopamine receptor; in assay [6]; at Glycine receptor; in assay [7]; in [8]) was “Not Active” throughout. The IC50 entry against Nitric oxide synthase 1 and on Caspase-1 was “Not Active” each time. Also, the Ki result in [2], in [3], in assay [7] and in assay [8] was “Not Active” in each case.
On to `CC(C)(C)NCC(O)c1ccc(O)c(CO)c1` (stereo not drawn) [ALBUTEROL], for which the IC50 entry (in [1]; in assay [2]; in assay [3]; at Thromboxane-A synthase (platelet); in assay [4]; against Carbonic anhydrase 2) was “Not Active” in each case. For the same compound, the IC50 entry (in [5]; at D(4) dopamine receptor; in assay [6]; against Glycine receptor; in assay [7]; in [8]) was “Not Active” throughout. Also, the IC50 result at Nitric oxide synthase 1 and against Caspase-1 was “Not Active” in each case. The Ki entry in assay [2], in assay [3], in assay [7] and in assay [8] was “Not Active” in each case.
Turning to `Oc1c(I)cc(I)c2cccnc12` [IODOQUINOL], the IC50 result (in [1]; in assay [2]; in assay [3]; at Thromboxane-A synthase (platelet); in [4]; against Carbonic anhydrase 2) was “Not Active” each time. For the same compound, the IC50 entry (in assay [5]; on D(4) dopamine receptor; in [6]; at Glycine receptor; in assay [7]; in assay [8]) was “Not Active” in each case. For the same compound, the IC50 result on Nitric oxide synthase 1 and on Caspase-1 was “Not Active” in each case. For the same compound, the Ki entry in assay [2], in assay [3], in [7] and in assay [8] was “Not Active” in each case.
In the case of `NNC(=O)c1ccncc1` [ISONIAZID], the IC50 entry (in assay [1]; in assay [2]; in [3]; against Thromboxane-A synthase (platelet); in assay [4]; against Carbonic anhydrase 2) was “Not Active” throughout. In addition, the 50% inhibitory concentration (IC50) entry (in [5]; on D(4) dopamine receptor; in assay [6]; against Glycine receptor; in assay [7]; in [8]) was “Not Active” each time. For the same compound, the IC50 result on Nitric oxide synthase 1 and against Caspase-1 was “Not Active” in each case. The Ki result in assay [2], in [3], in assay [7] and in assay [8] was “Not Active” each time.
